Experimental findings from ChEMBL document CHEMBL1201862, “PubChem BioAssay data set” (2004) are described below.

Structures are written as SMILES.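 Cultured in 96-well plates, cells were exposed to test compound for 48 hours across five concentrations. Here, GI50 denotes the concentration required for 50% inhibition of growth.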 Calls of active or inactive are those of the source. Rule as the data show it: active = GI50 up to about 1.1 µM and inactive = higher.

Test systems include OVCAR-5; ACHN; SF-539; MDA-N; SN12C; EKVX; MDA-MB-435; NCI-H226; OVCAR-3; TK-10; HL-60; NCI-H23; U-251; NCI-H522; MDA-MB-231; LOX IMVI; SNB-75; OVCAR-4; NCI-H460; A498.
Test in all cases: NCI-60 cell line screen, 48 h

As to `CN1CN(c2ccccc2)C2(CCN(CC(C)(c3ccc(F)cc3)C3OCCCO3)CC2)C1=O` (centres undefined), the GI50 with OVCAR-5 was 8.69 µM (inactive); with ACHN it was 17.7 µM (inactive); in the experiment on SF-539, 13.2 µM (inactive); in the experiment with MDA-N it was 17.3 µM (inactive); in the experiment on SN12C it was 18.1 µM (inactive); in the experiment on EKVX, 16.7 µM (inactive). Moreover, the GI50 is 10.9 µM (inactive) in the experiment with MDA-MB-435; 18.9 µM (inactive) in the experiment with NCI-H226; 11.5 µM (inactive) in the experiment with OVCAR-3; 15.5 µM (inactive) in the experiment on TK-10; 14.7 µM (inactive) in the experiment with HL-60; 14.9 µM (inactive) with NCI-H23. In addition, the GI50 was 12.8 µM (inactive) in the experiment with U-251; 16.8 µM (inactive) in the experiment on NCI-H522; 24.2 µM (inactive) in the experiment with MDA-MB-231; 17.5 µM (inactive) with LOX IMVI; 18.7 µM (inactive) with SNB-75.

`CCN1CN(c2ccccc2)C2(CCN(CCCSc3ccc(F)cc3)CC2)C1=O`: the GI50 in the experiment with OVCAR-5 is 5.19 µM (inactive); in the experiment on ACHN, 4.7 µM (inactive); in the experiment on SF-539, 9.4 µM (inactive); with MDA-N, 11.7 µM (inactive); with SN12C it was 8.47 µM (inactive); in the experiment with EKVX, 4.89 µM (inactive). Moreover, the GI50 in the experiment with MDA-MB-435 is 12.8 µM (inactive); in the experiment with NCI-H226, 16.8 µM (inactive); in the experiment with OVCAR-3, 13.9 µM (inactive); with TK-10, 12.7 µM (inactive); in the experiment on HL-60 it was 10.8 µM (inactive); in the experiment with NCI-H23 it was 10.4 µM (inactive). Moreover, the GI50 with U-251 was > 10 µM (inactive); with NCI-H522, 15 µM (inactive); in the experiment on MDA-MB-231, 12.7 µM (inactive); in the experiment on LOX IMVI, 14.3 µM (inactive); in the experiment with SNB-75 it was 16.4 µM (inactive).

`CC(C)CC1C(=O)NCCC(NC(=O)C(Cc2ccc(OC(C)(C)C)cc2)NC(=O)OC(C)(C)C)C(=O)NC(Cc2ccccc2)C(=O)NC(Cc2ccccc2)NC1=O` (centres undefined): the GI50 in the experiment on OVCAR-5 is 6.25 µM (inactive); in the experiment on ACHN, 7.89 µM (inactive); with SF-539, 23.2 µM (inactive); in the experiment on MDA-N, 5.82 µM (inactive); in the experiment with OVCAR-4, 14.9 µM (inactive); in the experiment on SN12C, 16.5 µM (inactive). Moreover, the GI50 with EKVX is 4.89 µM (inactive); in the experiment on NCI-H460, 2.96 µM (inactive); in the experiment with MDA-MB-435 it was 2.82 µM (inactive); in the experiment on NCI-H226, 5.06 µM (inactive); in the experiment with OVCAR-3, 4.6 µM (inactive); in the experiment with TK-10, 11.7 µM (inactive). Further, the GI50 in the experiment on HL-60 is 8.36 µM (inactive); in the experiment with NCI-H23, 13.3 µM (inactive); in the experiment on U-251, 12.8 µM (inactive); with NCI-H522, 11.6 µM (inactive); with MDA-MB-231 it was 4.9 µM (inactive); in the experiment with LOX IMVI, 4.6 µM (inactive).

`CCCC1(CCC)c2cc(/C=N\O)ccc2-c2ccc(-c3ccc(C(C)(C)C)cc3)cc21`: the GI50 with OVCAR-5 was > 100 µM (inactive); with ACHN it was 41.9 µM (inactive); with A498, > 10 µM (inactive); in the experiment with SF-539 it was > 100 µM (inactive); in the experiment with MDA-N it was 57.3 µM (inactive); with OVCAR-4 it was > 100 µM (inactive). Also, the GI50 in the experiment with SN12C was 23.1 µM (inactive); with EKVX, 56.8 µM (inactive); in the experiment on NCI-H460, 38.5 µM (inactive); with OVCAR-3 it was 22.9 µM (inactive); in the experiment on TK-10, 39 µM (inactive); with HL-60, 20.7 µM (inactive). Also, the GI50 in the experiment on NCI-H23 was 48.3 µM (inactive); with U-251 it was > 10 µM (inactive); with MDA-MB-231, 19.5 µM (inactive); in the experiment on LOX IMVI, 32.7 µM (inactive); in the experiment on SNB-75, 67.1 µM (inactive).

Turning to `CN(C)c1ccc(/C=C2\C[C@H]3[C@@H]4CC=C5C[C@@H](O)CC[C@]5(C)[C@H]4CC[C@]3(C)[C@H]2O)cc1`, the GI50 in the experiment on OVCAR-5 was 17.3 µM (inactive); in the experiment on ACHN, 16 µM (inactive); with A498 it was 17.2 µM (inactive); with SF-539, 10.2 µM (inactive); in the experiment with MDA-N, 20.2 µM (inactive); in the experiment with OVCAR-4, 35.6 µM (inactive). In addition, the GI50 in the experiment on SN12C was 12.8 µM (inactive); with EKVX it was 4.81 µM (inactive); with NCI-H460, 14.4 µM (inactive); in the experiment with NCI-H226, 17.4 µM (inactive); with OVCAR-3, 22.5 µM (inactive); in the experiment with TK-10, 18.5 µM (inactive). Moreover, the GI50 in the experiment on HL-60 was 31 µM (inactive); with NCI-H23, 15.9 µM (inactive); in the experiment with U-251, 8.2 µM (inactive); in the experiment with MDA-MB-231, 16.2 µM (inactive); in the experiment on LOX IMVI it was 8.51 µM (inactive); in the experiment with SNB-75, 29.2 µM (inactive).

`CCOC(=O)C(C)(C)/C=C\C(Cl)=C(Cl)Cl`: the GI50 in the experiment on OVCAR-5, in the experiment on ACHN, in the experiment on SF-539, in the experiment with MDA-N, in the experiment with SN12C and in the experiment with EKVX was > 100 µM (inactive) each time. Further, the GI50 with MDA-MB-435, in the experiment with NCI-H226, in the experiment with OVCAR-3, in the experiment on TK-10, in the experiment with HL-60 and with NCI-H23 was > 100 µM (inactive) in each case. The GI50 with NCI-H522, with MDA-MB-231, in the experiment on LOX IMVI and in the experiment on SNB-75 was > 100 µM (inactive) in each case.

As for `O=S(=O)(O)c1ccc(/N=N/c2ccc(/N=N/c3c(O)ccc4ccc(S(=O)(=O)O)cc34)cc2)cc1`, the GI50 in the experiment with OVCAR-5, in the experiment with ACHN, in the experiment with SF-539, in the experiment with MDA-N, in the experiment on OVCAR-4 and in the experiment on SN12C was > 100 µM (inactive) each time. Further, the GI50 in the experiment with EKVX, in the experiment with NCI-H460, with MDA-MB-435, with NCI-H226, with OVCAR-3 and in the experiment on TK-10 was > 100 µM (inactive) in each case. The GI50 with HL-60, in the experiment with NCI-H23, in the experiment with U-251, in the experiment with NCI-H522 and in the experiment on MDA-MB-231 was > 100 µM (inactive) each time.

Take `COc1ccc(Nc2nc(N)c(C(=O)c3ccccc3)s2)cc1`: the GI50 with OVCAR-5 is 19.5 µM (inactive); in the experiment with ACHN it was 7.67 µM (inactive); in the experiment on A498, 5.66 µM (inactive); in the experiment with SF-539, 0.0129 µM (active); with MDA-N, < 0.01 µM (active); with OVCAR-4, 2.44 µM (inactive). Besides, the GI50 with SN12C was 0.0811 µM (active); in the experiment on EKVX it was 0.142 µM (active); in the experiment with NCI-H460 it was 0.0289 µM (active); with MDA-MB-435 it was < 0.01 µM (active); in the experiment with NCI-H226, 0.0935 µM (active); with OVCAR-3 it was 0.0607 µM (active). The GI50 with TK-10 was 23.8 µM (inactive); in the experiment on HL-60 it was < 0.01 µM (active); with NCI-H23 it was 0.232 µM (active); in the experiment with U-251, 0.0302 µM (active); in the experiment on NCI-H522, 0.0148 µM (active); in the experiment on LOX IMVI, 0.0524 µM (active). In addition, the GI50 in the experiment with SNB-75 is 0.0258 µM (active).
